# What was measured:
# [1] = Inhibition of quorum sensing system in Chromobacterium violaceum CV026 assessed as reduction in violacein production at 1 mg/ml measured after 24 hrs relative to control
# [2] = Inhibition of quorum sensing system in Chromobacterium violaceum CV026 assessed as reduction in violacein production measured after 24 hrs
SMILES,inhibition [1] [%],IC50 [2] [µg/mL]
CCCC/C=C\NN(C(C)=O)C(=O)C(C)CC (stereo not drawn),40,–
CCCC/C=C\NN(C(C)=O)C(=O)C(C)C,40,–
CCCC/C=C\[N+]([O-])=N\[C@H](C)[C@H](O)CO,–,750

# Reference: ChEMBL document CHEMBL5370573, “Isolation of Hydrazide-alkenes with Different Amino Acid Origins from an Azoxy-alkene-Producing Mutant of Streptomyces rochei 7434AN4” (J Nat Prod, 2023)
